Reference: patent publication US11591301B2, “Indoleamine-2,3-dioxygenase inhibitor, preparation method therefor and use thereof” (HINOVA PHARMACEUTICALS INC., priority 2018, dated 2023)

What was measured:
human IDO1 protease = human IDO1 protease (Homo sapiens (Human), UniProt P14902); experiment: Inhibitory activity against human IDO1 protease (absorbance test method); format: biochemical; conditions: IDO1 (His-tag) enzyme, absorbance at 320 nm
Method: IDO1 (His-tag) enzyme(BPS Bioscience), L-tryptophan (Sigma), methylene blue (Sigma), Catalase originated from the liver of cattle (Sigma), L-ascorbic acid (Sigma), glycerol (Sigma), potassium dihydrogen phosphate solution (Sigma), Tween 20 (Sigma), automatic sampling platformLiquid handler (Bravo & Echo), microplate ReaderSpectraMax M5e (Molecular Devices).
2) Test Method of Compounds: The Compounds are Determined by Absorbance Test Method:
The tested compounds are dissolved in DMSO to prepare a high concentration of storage solution. The stock solution of reference compound was diluted with DMSO to prepare a 100× solution. In the first column of the working plate, 8 μL above tested compounds and 8 μL 100× reference compound were respectively added as the highest concentration, and then the highest concentrations were subjected to three times dilution to obtain 11 concentrations and prepare 100× solution. 0.5 μL solution was transferred from the above plate to the detection plate. To each well was added 0.5 μL 100× compound solution. For HPE and ZPE control wells, 0.5 μL 100% DMSO was added. 25 μL 2×IDO1 (His-tag) enzyme solution (containing L-ascorbic acid, methylene blue, and catalase) was added to each well. 25 μL reaction solution without IDO1 (His-tag) enzyme was added into HPE control well. The test plate was centrifugated at 1000 rpm for 1 minute to mix well. Then, the test plate was incubated at room temperature for 30 minutes. 25 μL above 2× substrate (L-tryptophan) solution was added to each well. The test plate was centrifugated at 1000 rpm for 1 minute to mix well. The detection plate was placed on ELISA (SpectraMax M5e), the temperature was set at 25° C., and the absorbance (OD value) was measured at 320 nm every 10 minutes till 60 minutes.
Calculating the increase ratio of absorbance: the slope of the absorbance increase curve from 10 min to 60 min is derived from SpectralMax M5e. The inhibition coefficient of compound was calculated: the inhibition ratio of compound=(the absorbance increase ratio of ZPE control well−the absorbance increase ratio of compound well)/(the absorbance increase ratio of ZPE control well−the absorbance increase ratio of HPE control well)×100. Results was analyzed by Prism 5.0.

[1] = Metabolic stability in mouse liver microsomes; format: in vitro ADME; conditions: mouse liver microsomes 0.5 mg/mL; read-out: Mouse liver microsomes Half-life t1/2
Method: (§1) Step 1: the mother liquor is prepared according to the composition ratio in Table 3 below:
(§2) Step 2: two experiments were respectively carried out as follows:
(§3) A) Adding NADPH:10 μL of liver microsomes at a concentration of 20 mg/mL and 40 μL of NADPH at a concentration of 10 mM were added to the incubation test. The final concentrations of liver microsomes and NADPH were 0.5 mg/mL and 1 mM, respectively.
(§4) B) Without addition of NADPH:10 μL of liver microsomes at a concentration of 20 mg/mL and 40 μL of high purity water were added to the incubation test. The final concentration of liver microsome was 0.5 mg/mL.
(§5) Step 3: 4 μL of 200 µM positive control or test compound was added and then the reaction was carried out. The positive control in this experiment was Verapamil. The final concentration of test compound was […].
(§6) Step 4: 50 μL was respectively taken out from the reaction solutions at the time points of 0, 15, 30, 45 and 60 min. 4× volumes of acetonitrile and IS (alprazolam at the concentration of 100 nM, labetalol at the concentration of 200 nM, caffeine at the concentration of 200 nM and ketoprofen at the concentration of 2 μM) were added to the reaction solution. The sample was centrifuged at 3,220 gram gravity for 40 minutes. 100 μL high-purity water was added to 100 μL supernatant and then analyzed by LC-MS/MS.
(§7) Step 5: Data analysis: the peak area was determined from the extracted ion chromatogram. The slope value k was determined by linear regression of the natural logarithm from the curve produced by the remaining percentage of the parent drug vs the incubation time.
(§8) In vitro half-life (in vitro t1/2) is determined by the slope value: in vitro t1/2=−(0.693/k)

[2] = Metabolic stability in rat liver microsomes; format: in vitro ADME; conditions: rat liver microsomes 0.5 mg/mL; read-out: Rat liver microsomes Half-life t1/2
Method: as §1, §2, §3, §4, §5, §6, §7, §8

[3] = Metabolic stability in human liver microsomes; format: in vitro ADME; conditions: human liver microsomes 0.5 mg/mL; read-out: Human liver microsomes Half-life t1/2
Method: as §1, §2, §3, §4, §5, §6, §7, §8

[4] = Pharmacokinetic experiment in mice (PO); format: in vivo; conditions: ICR, mouse, plasma, 10 mg/kg, 10 mpk; for Cmax: read-out: Blood concentration Cmax; for AUC: read-out: Curve area AUC; for half-life: read-out: Half life t1/2 (converted); for Tmax: read-out: Peak hour tmax
Method: Experimental animals: ICR mice (Chengdu Dashuo Experimental Animal Co., Ltd.)
5 mg of compound (compound 4 of the present invention, using similar compound INCB-24360 in clinical Phase III as reference compound) was accurately weighed, and the corresponding vehicle was added to a final volume of 10 ml, then mixed by ultrasonic vortexing. The solution at the concentration of 0.5 mg/ml was prepared. The final solution (0.2 ml) prepared was stored at −20° C. for concentration determination. 9 healthy adult ICR mice (20-30 g) were fasted overnight (free access to water), and received the administration volume of 0.2 ml/10 g by gavage; just prior to administration and 0.5, 1, 2, 4, 6, 8, 12, and 24 h after administration, 0.1 ml blood was collected from the retroorbital venous plexus, centrifuged at 4° C. for 5 min to separate the plasma, and stored at −20° C. for testing. Then the concentration of test compound in plasma was measured by LC/MS/MS method.

[5] = target: IDO1 protease activity in Hela cells (Homo sapiens (Human), UniProt P14902); experiment: Inhibition of IDO protease in HeLa cells (IDO/kynurenine experiment, IFN-γ induced); format: cell-based; conditions: 10 ng/mL IFN-γ, 48 h, OD480 nm, read-out: IC50, inhibitory activity against IDO1 protease activity in Hela cells
Method: 2) Experimental Method for Compound Assay 2.1 Seeding HeLa Cells into 96 Well Plate
The medium was taken out from the flask and the cells were washed with PBS. TrypLE solution was added to the flask to make the cells separate. The cells were further washed once with fresh medium containing 10% FBS, and then re-suspended in the medium until the final concentration was 2.3×10^6/mL. Only cells with activity greater than 90% can be used for detection. HeLa cells were planted into 100 μL suitable growth median 96 well plate at 3000 cells/well. The cells were incubated at 37° C. under 5% CO2 overnight.
The compound was diluted to the concentration of 10 mM with DMSO, that was then continuously diluted 3 times to get 9 concentrations. 5 μL compound was added into 45 μL media as the median dilution (10 times dilution, containing 10% DMSO). 96 μL fresh growth media were added to each well to reach the total volume of 196 μL. 2 μL compound solution was taken from the mid-diluted solution and added to the cells in the wells of the assay plate, and then incubated in a 5% CO2 incubator at 37° C. for 30 minutes. 2 μL human IFN-γ solution was added to reach a total volume of 200 μL, with the final concentration of 10 ng/mL, and the final concentration is 0.1%. The cells were incubated in 5% CO2 incubator at 37° C. for 48 h.
After incubating for another 48 hours in a 5% CO2 incubator at 37° C., 140 μL supernatant was added to each well and transferred to a new 96-well plate. 10 μL of 6.1N CCl3COOH was further added to each well, and incubated at 50° C. for 30 min after sealing. The plate was then centrifuged at 2500 rpm for 10 minutes. 100 μL supernatant in each well was transferred to another 96-well assay plate and mixed with 100 μL of 6% (w/v) p-dimethylaminobenzaldehyde. EnSpire was used to read the plate at OD480 nm.
The average data of HC (high control: 10 ng/mL IFN-γ) and LC (low control: no IFN-γ) were calculated for each screening plate. Percent inhibition of compound well (% inh)=100*(aveHC−cpd well)/(aveHC−ave LC). Finally, GraphPad Prism 6 software was used to calculate the IC50 values of compounds and draw the effect-concentration curve.

Sequence of IDO1 protease activity in Hela cells (P14902 whole entry): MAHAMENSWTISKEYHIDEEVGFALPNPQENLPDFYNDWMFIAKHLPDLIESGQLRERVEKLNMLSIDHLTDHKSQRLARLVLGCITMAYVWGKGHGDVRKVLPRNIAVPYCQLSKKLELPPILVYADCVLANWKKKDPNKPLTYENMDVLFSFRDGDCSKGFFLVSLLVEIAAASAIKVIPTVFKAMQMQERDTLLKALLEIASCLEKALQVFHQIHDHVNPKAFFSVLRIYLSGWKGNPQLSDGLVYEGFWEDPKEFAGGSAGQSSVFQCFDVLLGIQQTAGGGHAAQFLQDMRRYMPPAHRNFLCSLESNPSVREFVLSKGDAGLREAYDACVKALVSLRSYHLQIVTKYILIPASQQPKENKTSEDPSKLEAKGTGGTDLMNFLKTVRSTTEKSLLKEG
Sequence of human IDO1 protease (P14902 whole entry): as above

| IC50 (human IDO1 protease) | half-life at 2 µM [1] | half-life at 2 µM [2] | half-life at 2 µM [3] | Cmax [4] | AUC [4] | half-life [4] | Tmax [4] | IC50 [5] | SMILES |
| --- | --- | --- | --- | --- | --- | --- | --- | --- | --- |
| 19 nM | 0.8 h | 1.73 h | 7.45 h | 555 ng/mL | 1320 ng·h/mL | 1.28 h | 0.67 h | – | NS(=O)(=O)CCNc1nonc1C(=NO)Nc1ccc(F)c(Br)c1 [Example 1, N-(3-bromo-4-fluorophenyl)-N′-hydroxyl-4-((2-sulfamoylethyl)amino)-1,2,5-oxadiazol-3-formamidine] |
| – | 0.167 h | 0.4 h | 1.55 h | 687 ng/mL | 845 ng·h/mL | 1.15 h | 0.5 h | 8 nM | CNS(=O)(=O)CCCNc1nonc1/C(=N/O)Nc1ccc(F)c(Br)c1 [Example 11, N-(3-bromo-4-fluorophenyl)-N′-hydroxyl-4-((3-(N-methylsulfamoyl)propyl)amino)-1,2,5-oxadiazol-3-formamidine] |
| 47 nM | 0.383 h | 0.317 h | 2.73 h | 704 ng/mL | 1080 ng·h/mL | 2.87 h | 0.5 h | 12 nM | CCNS(=O)(=O)CCCNc1nonc1C(=NO)Nc1ccc(F)c(Br)c1 [Example 12, N-(3-bromo-4-fluorophenyl)-N′-hydroxyl-4-((3-(N-ethylsulfamoyl)propyl)amino)-1,2,5-oxadiazol-3-formamidine] |
| – | 1.45 h | 1.22 h | 29.4 h | – | – | – | – | 12 nM | NS(=O)(=O)CCCCNc1nonc1C(=NO)Nc1ccc(F)c(Br)c1 [Example 22, N-(3-bromo-4-fluorophenyl)-N′-hydroxyl-4-((4-sulfamoylbutyl)amino)-1,2,5-oxadiazol-3-formamidine] |
| – | 0.35 h | 0.633 h | 5.72 h | 469 ng/mL | 1050 ng·h/mL | 2.5 h | 0.5 h | 10 nM | [2H]C([2H])([2H])NS(=O)(=O)CCCNc1nonc1/C(=N/O)Nc1ccc(F)c(Br)c1 [Example 27, N-(3-bromo-4-fluorophenyl)-N′-hydroxyl-4-((3-(N-(methyl-d3)sulfonyl)propyl)amino)-1,2,5-oxadiazol-3-oximecarboxamide] |
| – | 1.3 h | 2.43 h | 2.62 h | – | – | – | – | – | NS(=O)(=O)NCCNc1nonc1C(=NO)Nc1ccc(F)c(Br)c1 [INCB024360, reference compound] |
